Experimental data reported in ChEMBL document CHEMBL4177694, “Discovery of the first low-shift positive allosteric modulators for the muscarinic M1 receptor” (Bioorg Med Chem Lett, 2017).
Activity calls are given as the source filed them. The calls are words filed in the database; no cut-off is given here.

Key:
[1] = target: T1, Muscarinic acetylcholine receptor M1 (Homo sapiens) (UniProt P11229); experiment: Positive allosteric modulation of human wild type M1 receptor assessed as increase in acetylcholine-induced calcium flux by FLIPR assay relative to acetylcholine; type: functional
T1 sequence (whole entry): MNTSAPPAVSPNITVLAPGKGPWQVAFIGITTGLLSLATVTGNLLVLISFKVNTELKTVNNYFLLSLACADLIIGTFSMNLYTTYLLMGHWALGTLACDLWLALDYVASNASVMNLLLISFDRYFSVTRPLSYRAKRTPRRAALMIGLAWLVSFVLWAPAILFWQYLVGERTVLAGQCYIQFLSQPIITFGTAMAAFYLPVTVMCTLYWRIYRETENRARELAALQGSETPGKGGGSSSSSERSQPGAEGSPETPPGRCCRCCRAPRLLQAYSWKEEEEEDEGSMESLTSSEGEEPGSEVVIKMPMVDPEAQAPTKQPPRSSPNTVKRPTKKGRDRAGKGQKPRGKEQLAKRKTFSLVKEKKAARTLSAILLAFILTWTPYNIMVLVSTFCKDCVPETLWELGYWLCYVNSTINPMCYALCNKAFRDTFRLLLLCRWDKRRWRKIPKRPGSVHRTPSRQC

[2] = target: T2, Muscarinic acetylcholine receptor M1 (Homo sapiens, UniProt P11229); experiment: (§1) Positive allosteric modulation of human wild type M1 receptor assessed as increase in acetylcholine-induced calcium flux by FLIPR assay; type: functional
T2 sequence (P11229 whole entry): T1 sequence (whole entry)

[3] = Displacement of [3H]-Ro 15-1788 from rat brain synaptosomal membranes GABA receptor after 90 mins
[4] = target: T1, Muscarinic acetylcholine receptor M1 (Homo sapiens); experiment: as §1; type: functional
[5] = target: Gamma-aminobutyric acid receptor subunit alpha-2/beta-3/gamma-2 (Rattus norvegicus, UniProt P18508+P23576+P63079); experiment: […] rat GABA-A receptor alpha2beta3gamma2 expressed in HEK293 cells by electrophysiology assay; type: cell-based
[6] = target: GABA-A receptor; alpha-2/beta-3/gamma-2 (Homo sapiens, UniProt P18507+P28472+P47869); experiment: […] human GABA-A receptor alpha2beta3gamma2 expressed in HEK293 cells by electrophysiology assay; type: cell-based
GABA-A receptor; alpha-2/beta-3/gamma-2, sequence (P18507 whole entry): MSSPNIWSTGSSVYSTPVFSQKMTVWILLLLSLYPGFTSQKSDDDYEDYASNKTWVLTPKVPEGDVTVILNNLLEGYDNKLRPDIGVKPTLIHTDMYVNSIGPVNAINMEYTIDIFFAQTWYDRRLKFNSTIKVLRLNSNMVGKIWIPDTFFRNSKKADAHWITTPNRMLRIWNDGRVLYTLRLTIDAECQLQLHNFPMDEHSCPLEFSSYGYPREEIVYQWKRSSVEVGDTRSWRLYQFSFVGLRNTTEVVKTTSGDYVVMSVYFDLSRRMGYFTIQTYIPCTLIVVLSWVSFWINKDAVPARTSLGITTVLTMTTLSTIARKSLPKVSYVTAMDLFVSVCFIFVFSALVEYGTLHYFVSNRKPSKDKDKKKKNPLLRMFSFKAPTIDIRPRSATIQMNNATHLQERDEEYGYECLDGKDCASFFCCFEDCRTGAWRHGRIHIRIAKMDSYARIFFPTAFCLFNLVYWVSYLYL
GABA-A receptor; alpha-2/beta-3/gamma-2, sequence (P28472 whole entry): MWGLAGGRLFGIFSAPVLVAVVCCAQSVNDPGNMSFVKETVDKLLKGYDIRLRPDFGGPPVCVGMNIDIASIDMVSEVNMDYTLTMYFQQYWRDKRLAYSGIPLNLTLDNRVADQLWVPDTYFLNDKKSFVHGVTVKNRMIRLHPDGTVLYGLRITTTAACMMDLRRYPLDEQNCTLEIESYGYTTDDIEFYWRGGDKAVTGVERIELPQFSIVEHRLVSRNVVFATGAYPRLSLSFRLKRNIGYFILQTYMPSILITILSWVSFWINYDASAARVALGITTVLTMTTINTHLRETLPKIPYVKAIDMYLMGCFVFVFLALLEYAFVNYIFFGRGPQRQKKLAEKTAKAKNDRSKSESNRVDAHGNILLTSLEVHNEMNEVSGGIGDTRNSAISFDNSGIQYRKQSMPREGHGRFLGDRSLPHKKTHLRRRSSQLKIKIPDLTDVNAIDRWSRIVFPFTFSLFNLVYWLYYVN
GABA-A receptor; alpha-2/beta-3/gamma-2, sequence (P47869 whole entry): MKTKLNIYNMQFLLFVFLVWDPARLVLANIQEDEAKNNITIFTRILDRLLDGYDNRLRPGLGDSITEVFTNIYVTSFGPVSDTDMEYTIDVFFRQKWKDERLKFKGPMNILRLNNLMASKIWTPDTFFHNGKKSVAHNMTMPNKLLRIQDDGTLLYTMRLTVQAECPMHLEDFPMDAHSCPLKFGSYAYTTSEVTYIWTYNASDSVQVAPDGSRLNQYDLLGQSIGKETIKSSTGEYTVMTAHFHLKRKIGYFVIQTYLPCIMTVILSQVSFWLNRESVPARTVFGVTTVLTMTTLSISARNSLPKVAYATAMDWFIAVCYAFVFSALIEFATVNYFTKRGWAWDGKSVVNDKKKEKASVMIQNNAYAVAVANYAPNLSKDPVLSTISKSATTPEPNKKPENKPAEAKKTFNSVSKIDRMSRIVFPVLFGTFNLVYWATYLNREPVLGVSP

[7] = target: GABA-A receptor; alpha-1/beta-2/gamma-2 (Rattus norvegicus, UniProt P18508+P62813+P63138); experiment: […] rat GABA-A receptor alpha1beta2gamma2 expressed in HEK293 cells by electrophysiology assay; type: cell-based
[8] = target: GABA-A receptor; alpha-1/beta-2/gamma-2 (Homo sapiens, UniProt P14867+P18507+P47870); experiment: […] human GABA-A receptor alpha1beta2gamma2 expressed in HEK293 cells by electrophysiology assay; type: cell-based
GABA-A receptor; alpha-1/beta-2/gamma-2 (Homo sapiens, UniProt P14867+P18507+P47870), sequence (P14867 whole entry): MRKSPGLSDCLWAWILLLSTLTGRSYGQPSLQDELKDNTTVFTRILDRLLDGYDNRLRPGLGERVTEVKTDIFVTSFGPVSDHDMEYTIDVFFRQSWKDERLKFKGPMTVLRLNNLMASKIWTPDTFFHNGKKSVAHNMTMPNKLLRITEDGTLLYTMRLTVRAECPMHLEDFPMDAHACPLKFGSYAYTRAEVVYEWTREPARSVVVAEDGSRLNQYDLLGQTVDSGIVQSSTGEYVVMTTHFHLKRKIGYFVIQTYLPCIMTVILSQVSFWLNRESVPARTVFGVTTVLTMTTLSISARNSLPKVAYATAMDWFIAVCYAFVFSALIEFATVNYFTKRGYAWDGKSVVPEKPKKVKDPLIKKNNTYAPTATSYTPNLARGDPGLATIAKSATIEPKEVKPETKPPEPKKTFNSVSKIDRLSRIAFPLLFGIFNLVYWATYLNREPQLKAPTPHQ
GABA-A receptor; alpha-1/beta-2/gamma-2 (Homo sapiens, UniProt P14867+P18507+P47870), sequence (P47870 whole entry): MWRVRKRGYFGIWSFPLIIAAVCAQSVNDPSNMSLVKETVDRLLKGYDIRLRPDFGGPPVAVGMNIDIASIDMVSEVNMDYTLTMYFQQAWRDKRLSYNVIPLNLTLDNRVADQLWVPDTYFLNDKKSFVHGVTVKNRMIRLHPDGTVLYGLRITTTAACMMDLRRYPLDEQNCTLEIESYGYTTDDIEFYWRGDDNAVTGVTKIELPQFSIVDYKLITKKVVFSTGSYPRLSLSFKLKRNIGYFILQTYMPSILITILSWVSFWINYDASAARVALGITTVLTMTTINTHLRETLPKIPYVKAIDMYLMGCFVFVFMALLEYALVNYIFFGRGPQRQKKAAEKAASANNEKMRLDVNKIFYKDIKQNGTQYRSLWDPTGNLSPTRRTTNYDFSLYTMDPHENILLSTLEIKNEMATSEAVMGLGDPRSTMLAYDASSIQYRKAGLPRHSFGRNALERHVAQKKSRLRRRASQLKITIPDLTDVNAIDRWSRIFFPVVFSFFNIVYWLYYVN
GABA-A receptor; alpha-1/beta-2/gamma-2 (Homo sapiens, UniProt P14867+P18507+P47870), sequence (P18507 whole entry): as the sequence (P18507 whole entry) above

[9] = target: GABA A receptor alpha-5/beta-3/gamma-2 (Rattus norvegicus, UniProt P18508+P19969+P63079); experiment: […] rat GABA-A receptor alpha5beta3gamma2 expressed in HEK293 cells by electrophysiology assay; type: cell-based
[10] = target: Gamma-aminobutyric acid receptor subunit alpha-3/beta-3/gamma-2 (Rattus norvegicus, UniProt P18508+P20236+P63079); experiment: […] rat GABA-A receptor alpha3beta3gamma2 expressed in HEK293 cells by electrophysiology assay; type: cell-based
[11] = target: GABA-A receptor; alpha-3/beta-3/gamma-2 (Homo sapiens, UniProt P18507+P28472+P34903); experiment: […] human GABA-A receptor alpha3beta3gamma2 expressed in HEK293 cells by electrophysiology assay; type: cell-based
GABA-A receptor; alpha-3/beta-3/gamma-2, sequence (P18507 whole entry): as above
GABA-A receptor; alpha-3/beta-3/gamma-2, sequence (P28472 whole entry): as the sequence (P28472 whole entry) above
GABA-A receptor; alpha-3/beta-3/gamma-2, sequence (P34903 whole entry): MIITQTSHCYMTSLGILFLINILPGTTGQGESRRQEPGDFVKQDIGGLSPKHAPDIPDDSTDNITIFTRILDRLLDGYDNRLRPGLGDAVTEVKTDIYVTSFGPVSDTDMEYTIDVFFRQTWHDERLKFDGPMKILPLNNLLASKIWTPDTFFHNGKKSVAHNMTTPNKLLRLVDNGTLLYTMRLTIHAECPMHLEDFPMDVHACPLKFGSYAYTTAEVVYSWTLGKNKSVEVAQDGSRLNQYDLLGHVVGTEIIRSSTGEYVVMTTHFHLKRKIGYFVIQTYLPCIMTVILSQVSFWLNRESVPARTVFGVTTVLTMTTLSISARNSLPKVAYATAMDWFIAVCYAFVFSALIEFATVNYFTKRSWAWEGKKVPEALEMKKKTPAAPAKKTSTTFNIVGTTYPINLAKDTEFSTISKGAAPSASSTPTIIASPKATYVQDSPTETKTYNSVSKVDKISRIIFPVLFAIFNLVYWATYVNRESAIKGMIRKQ

[12] = target: GABA-A receptor; alpha-5/beta-3/gamma-2 (Homo sapiens, UniProt P18507+P28472+P31644); experiment: […] human GABA-A receptor alpha5beta3gamma2 expressed in HEK293 cells by electrophysiology assay; type: cell-based
GABA-A receptor; alpha-5/beta-3/gamma-2, sequence (P18507 whole entry): as the sequence (P18507 whole entry) above
GABA-A receptor; alpha-5/beta-3/gamma-2, sequence (P28472 whole entry): as the sequence (P28472 whole entry) above
GABA-A receptor; alpha-5/beta-3/gamma-2, sequence (P31644 whole entry): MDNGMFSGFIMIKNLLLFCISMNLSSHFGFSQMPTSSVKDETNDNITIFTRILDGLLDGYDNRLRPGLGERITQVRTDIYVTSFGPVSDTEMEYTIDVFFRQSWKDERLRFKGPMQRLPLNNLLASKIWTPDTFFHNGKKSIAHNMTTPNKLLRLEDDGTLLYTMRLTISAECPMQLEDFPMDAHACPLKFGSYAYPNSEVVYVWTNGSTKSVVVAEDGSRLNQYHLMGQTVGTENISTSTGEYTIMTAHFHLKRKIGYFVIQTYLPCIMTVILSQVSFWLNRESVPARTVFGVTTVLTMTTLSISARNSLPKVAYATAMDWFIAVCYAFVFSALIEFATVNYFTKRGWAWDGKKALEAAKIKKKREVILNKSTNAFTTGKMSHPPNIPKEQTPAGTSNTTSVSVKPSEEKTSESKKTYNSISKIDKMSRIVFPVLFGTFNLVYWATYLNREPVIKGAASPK

[13] = Stability in mouse microsomes; type: ADME, Microsome
[14] = Drug metabolism in rat microsomes assessed as amide formation; type: ADME, Microsome
[15] = Activity at P-gp (unknown origin); type: ADME; conditions: human
Cytochrome P450 3A4 = Cytochrome P450 3A4 (Homo sapiens, UniProt P08684); experiment: Inhibition of CYP3A4 (unknown origin); type: ADME
Cytochrome P450 3A4, sequence (P08684 whole entry): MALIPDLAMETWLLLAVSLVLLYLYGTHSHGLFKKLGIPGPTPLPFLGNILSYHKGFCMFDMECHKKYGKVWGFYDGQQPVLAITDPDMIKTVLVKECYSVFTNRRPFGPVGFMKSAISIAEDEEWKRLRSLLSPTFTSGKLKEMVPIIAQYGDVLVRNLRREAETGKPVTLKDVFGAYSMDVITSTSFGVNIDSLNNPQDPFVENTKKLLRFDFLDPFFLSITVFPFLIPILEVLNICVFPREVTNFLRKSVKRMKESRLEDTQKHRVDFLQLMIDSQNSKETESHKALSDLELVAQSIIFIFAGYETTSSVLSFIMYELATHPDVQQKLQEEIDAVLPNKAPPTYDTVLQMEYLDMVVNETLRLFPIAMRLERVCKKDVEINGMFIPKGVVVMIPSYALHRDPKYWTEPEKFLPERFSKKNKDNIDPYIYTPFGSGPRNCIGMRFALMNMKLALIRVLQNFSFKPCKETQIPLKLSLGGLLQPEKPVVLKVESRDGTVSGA

[16] = Stability in human microsomes; type: ADME, Microsome

Row | Compound | Emax [1] | EC50 [2] | further results
1 | CC(C)C1C(=O)N(c2ccccc2)c2cc(Cl)ccc2NC1=S (stereo not given) | 93% | 267 nM | 
2 | Fc1ccccc1C1=CCC(=S)Nc2ccc(Cl)cc21 | 95% | 317 nM | 
3 | Fc1ccccc1C1=N[C@@H](c2ccccc2)C(=S)Nc2ccc(Cl)cc21 | 75% | 1470 nM | 
4 | CC(=O)OC1C=C(c2ccccc2F)c2cc(Cl)ccc2NC1=S (stereo not given) | 92% | 649 nM | 
5 | S=C1CC(c2ccccc2)=Nc2cc(Cl)ccc2N1 |  | > 10000 nM | 
6 | S=C1Nc2ccc(Cl)cc2C(c2ccccc2)=NC1n1ccnc1 (racemic) |  | > 10000 nM | 
7 | CC[C@@H]1N=C(c2ccccc2)c2cc(Cl)ccc2NC1=S | 66% | 187 nM | 
8 | C[C@@H]1N=C(c2ccccc2)c2ccccc2NC1=S |  |  | EC50 [3]: 68000 nM
9 | CSC1=Nc2ccc(Cl)cc2C(c2ccccc2)=N[C@H]1C(C)C |  |  | Activity [4]: inactive
10 | CC(C)[C@@H]1N=C(c2ccc(C(F)(F)F)cc2)c2cc(Cl)ccc2NC1=S |  | > 10000 nM | 
11 | Fc1ccccc1C1=NCC(=S)Nc2ccccc21 |  | > 10000 nM | 
12 | CC(C)[C@H]1N=C(c2ccccc2)c2cc(Cl)ccc2NC1=S | 86% | 521 nM | EC50 [3]: 267000 nM
13 | S=C1Nc2ccc(Cl)cc2C(c2ccccc2)=N[C@H]1CC1CC1 | 108% | 251 nM | 
14 | Fc1ccccc1C1=N[C@@H](C2CC2)C(=S)Nc2ccc(Cl)cc21 | 79% | 165 nM | 
15 | CC1N=C(c2ccccc2)c2ccccc2NC1=S (racemic) | 88% | 552 nM | EC50 [3]: 61 nM
16 | CCC1CN(c2ccccc2)c2cc(Cl)ccc2NC1=S (stereo not given) | 76% | 50 nM | 
17 | S=C1CN=C(c2ccccc2)c2ccccc2N1 |  | > 10000 nM | 
18 | Fc1ccccc1C1=NCc2cnnn2-c2ccc(Cl)cc21 |  |  | Activity [4]: inactive
19 | CCC1N=C(c2ccccc2)c2cc(N)ccc2NC1=S (stereo not given) |  | > 10000 nM | 
20 | CC(C)[C@@H]1N=C(c2cccc(Cl)c2)c2cc(Cl)ccc2NC1=S | 112% | 172 nM | 
21 | S=C1CN=C(c2ccccc2)c2cc(Br)ccc2N1 | 92% | 962 nM | 
22 | CC(C)[C@@H]1N=C(c2cccnc2)c2cc(Cl)ccc2NC1=S | 112% | 275 nM | 

Row | Compound | Emax [1] | EC50 [2] | further results
23 | Cc1ccc2c(c1)C(c1ccccc1)=NCC(=S)N2 | 91% | 3680 nM | 
24 | FC(F)(F)C[C@@H]1N=C(c2ccccc2)c2cc(Cl)ccc2NC1=S | 74% | 311 nM | 
25 | CCOC1N=C(c2ccccc2)c2cc(Cl)ccc2NC1=S (racemic) |  | > 10000 nM | 
26 | CC(C)[C@@H]1N=C(c2ccccn2)c2cc(Cl)ccc2NC1=S | 103% | 289 nM | 
27 | CCC[C@@]1(C)N=C(c2ccccc2)c2cc(Cl)ccc2NC1=S |  | > 10000 nM | 
28 | CCOC(=O)C1N=C(c2ccccc2)c2cc(Cl)ccc2NC1=S (racemic) |  | > 10000 nM | 
29 | CC(C)C[C@@H]1N=C(c2ccccc2Cl)c2cc(Cl)ccc2NC1=S |  | > 10000 nM | 
30 | CC(C)[C@@H]1N=C(c2ccccc2)c2cc(Cl)ccc2N=C1N |  |  | Activity [4]: inactive
31 | CNC1=Nc2ccc(Cl)cc2C(c2ccccc2)=N[C@H]1C(C)C |  |  | Activity [4]: inactive
32 | SC1=Nc2ccc(Cl)cc2C(c2ccccc2)=NC1 | 82 to 92% | 180 to 857 nM | 
33 | Fc1ccccc1C1=NCC(=S)Nc2ccc(Cl)cc21 | 95% | 317 nM | 
34 | CC(C)[C@@H]1N=C(c2ccccc2)c2cc(Cl)ccc2N(C)C1=S |  | > 10000 nM | EC50 [3]: 73000 nM
35 | FC(F)(F)c1ccc2c(c1)C(c1ccccc1)=NCC(=S)N2 | 92% | 516 nM | 
36 | CC(C)(O)C1N=C(c2ccccc2)c2cc(Cl)ccc2NC1=S (racemic) | 113% | 1850 nM | 
37 | CC(C)[C@@H]1N=C(c2ccccc2)c2cc(Cl)ccc2NC1=S | 102% | 70 nM | EC50 [5]: > 24000 nM; EC50 [6]: > 24000 nM; EC50 [7]: > 24000 nM; EC50 [8]: > 24000 nM; EC50 [9]: > 24000 nM; EC50 [10]: > 24000 nM; EC50 [11]: > 24000 nM; EC50 [12]: > 24000 nM
38 | CC(C)[C@@H]1N=C(c2ccccc2)c2cc(OC(F)(F)F)ccc2NC1=S | 127% | 232 nM | 
39 | CC1N=C(c2ccccc2)c2cc(C#N)ccc2NC1=S (stereo not given) | 47% | > 10000 nM | 
40 | COC(C)C1N=C(c2ccccc2)c2cc(Cl)ccc2NC1=S (racemic) | 98% | 354 nM | 
41 | COc1ccc2c(c1)C(c1ccccc1)=N[C@@H](C(C)C)C(=S)N2 | 105% | 559 nM | 
42 | S=C1Cc2ccccc2-c2cc(Cl)ccc2N1 |  | > 10000 nM | 
43 | CC(C)C[C@@H]1N=C(c2ccccc2)c2cc(Cl)ccc2NC1=S | 107% | 317 nM | 
44 | CCC[C@@H]1N=C(c2ccccc2)c2cc(Cl)ccc2NC1=S | 129% | 238 nM | 

Row | Compound | Emax [1] | EC50 [2] | further results
45 | C[C@@H]1N=C(c2ccccc2)c2cc(Cl)ccc2NC1=S | 67% | 103 nM | 
46 | CCCC1=N[C@@H](C(C)C)C(=S)Nc2ccc(Cl)cc21 |  | > 10000 nM | 
47 | CN1C(=S)CN=C(c2ccccc2)c2cc(Cl)ccc21 [SULAZEPAM] |  | > 10000 nM | 
48 | CCC[C@]1(C)N=C(c2ccccc2)c2cc(Cl)ccc2NC1=S |  | 104 nM | 
49 | CC(C)[C@@H]1N=C(c2ccccc2)c2cc(Cl)ccc2NC1=O | 90% | 777 nM | EC50 [3]: 57000 nM
50 | Cc1ccc2c(c1)C(c1ccccc1)=NC(C(C)C)C(=S)N2 (stereo not given) | 129% | 62 nM | 
51 | Fc1ccccc1C1=N[C@H](c2ccccc2)C(=S)Nc2ccc(Cl)cc21 |  | > 10000 nM | 
52 | CC(C)[C@@H]1N=C(N2CCCCC2)c2cc(Cl)ccc2NC1=S |  | > 10000 nM | 
53 | CC(C)C1C(=S)Nc2ccc(Cl)cc2C(c2ccccc2)=[N+]1[O-] (stereo not given) | 112% | 349 nM | 
54 | CSc1ccc2c(c1)C(c1ccccc1)=NCC(=S)N2 | 71% | 870 nM | 
55 | CC(C)[C@@H]1N=C(C2CCCCC2)c2cc(Cl)ccc2NC1=S | 75% | 414 nM | 
56 | CC(C)[C@@H]1N=C(c2ccccc2)c2cc(-c3ccccc3)ccc2NC1=S | 108% | 1470 nM | 
57 | CC(=O)c1ccc2c(c1)C(c1ccccc1)=NC(C)C(=S)N2 (stereo not given) |  | > 10000 nM | 
58 | CC(C)=C1N=C(c2ccccc2)c2cc(Cl)ccc2NC1=S |  | > 10000 nM | 
59 | CC(C)[C@H]1N=C(c2ccccc2F)c2cc(Cl)ccc2NC1=S | 119% | 420 nM | 
60 | Fc1ccccc1C1=NCC(=S)Nc2ccc(I)cc21 | 63% | 2150 nM | 
61 | S=C1COC(c2ccccc2)c2cc(Cl)ccc2N1 (stereo not given) |  | > 10000 nM | 
62 | CC(C)[C@@H]1N=C(c2ccccc2)c2ccc(Cl)cc2NC1=S | 117% | 399 nM | 
63 | CC(C)[C@@H]1N=C(c2ccccc2)c2cc(C(F)(F)F)ccc2NC1=S | 72% | 71 nM | Stability [13]: Stable; Drug metabolism [14]: Metabolite_Detected; Activity [15]: Not Active; inhibition (INH) (Cytochrome P450 3A4): Not Active; Stability [16]: Stable
64 | O=[N+]([O-])c1ccc2c(c1)C(c1ccccc1)=NCC(=S)N2 | 40% | 4480 nM | 
